Measured values published in BigSolDB 2.1.

COc1ccc2c3c1O[C@H]1[C@@H](O)C=C[C@H]4[C@@H](C2)N(C)CC[C@@]341.O=P(O)(O)O
solubility (mole fraction)
Details | 293.2 K | 298.2 K | 303.2 K | 308.2 K | 313.2 K
in NMP | 0.00206 | 0.00212 | 0.00239 | 0.00249 | 0.00259
in isopropanol | 1.96e-05 | 2.52e-05 | 2.99e-05 | 3.6e-05 | 3.99e-05
